Assay results published in patent US20260034094A1, “COMPOSITIONS AND METHODS FOR INDUCING FERROPTOSIS” (Kojin Therapeutics, Inc., priority 2022, published 2026).

System: RKN cells
Assay: RKN cell profiling assay (cell viability, CellTiter-Glo)
Format: cell-based
Settings: cell viability, read-out: Cell Killing EC50
Protocol: RKN cells were suspended in assay medium (F-12 medium supplemented with 10% FBS and penicillin/streptomycin) and seeded at 1,000 cells per well (30 μL total volume) in opaque white 384-well plates (Corning). Cells were allowed to adhere for 24 h at 37° C. (95% humidity, 5% CO2) and then exposed to compounds disclosed herein for 72 h, or in the present case, 96 h. DMSO stock solutions of compounds were added to cells using a D300e Digital Dispenser (Tecan). The final DMSO concentration in each well was normalized to 0.5% (v/v) after compound treatment. Cell viability was measured using CellTiter-Glo (Promega). After incubation for 15 min at room temperature, luminescence was measured using a PHERAstar FSX microplate reader (BMG Labtech). Ferroptosis rescue experiments were performed as described previously using cells treated with ferrostatin-1 (fer-1, 1.5 μM) when seeding assay plates. Dose-response data were analyzed to determine EC50 values with GraphPad Prism 9 software using a four-parameter logistic equation or CDD Vault (Collaborative Drug Discovery) using the Levenberg-Marquardt algorithm.

SMILES	EC50
N=S(=O)(CCC(c1ccc(-c2cnc3[nH]ncc3c2)cc1)C(F)(F)F)CC[C@H](N)C(=O)O (some centres unmarked) [Compound 254]	≥ 1 mM
N=S(=O)(CCC(c1ccc(-c2ccc3cn[nH]c3c2)cc1)C(F)(F)F)CC[C@H](N)C(=O)O (some centres unmarked) [Compound 255]	≥ 1 mM
N=S(=O)(CCC(c1ccc(-c2ccc(Cl)s2)cc1)C(F)(F)F)CC[C@H](N)C(=O)O (some centres unmarked) [Compound 256]	< 1 mM
N=S(=O)(CCC(c1ccc(-c2ccsc2)cc1)C(F)(F)F)CC[C@H](N)C(=O)O (some centres unmarked) [Compound 257]	< 1 mM
N=S(=O)(CCC(c1ccc(-c2ccoc2)cc1)C(F)(F)F)CC[C@H](N)C(=O)O (some centres unmarked) [Compound 258]	< 1 mM
N=S(=O)(CCC(c1ccc(C2=CCNCC2)cc1)C(F)(F)F)CC[C@H](N)C(=O)O (some centres unmarked) [Compound 259]	≥ 1 mM
C=C(c1ccc(C(CCS(=N)(=O)CC[C@H](N)C(=O)O)C(F)(F)F)cc1)C(F)(F)F (some centres unmarked) [Compound 260]	≥ 1 mM
C=Cc1ccc(C(CCS(=N)(=O)CC[C@H](N)C(=O)O)C(F)(F)F)cc1 (some centres unmarked) [Compound 261]	< 1 mM
C=C(C)c1ccc(C(CCS(=N)(=O)CC[C@H](N)C(=O)O)C(F)(F)F)cc1 (some centres unmarked) [Compound 262]	< 1 mM
CC(C)(O)c1ccc(C(CCS(=N)(=O)CC[C@H](N)C(=O)O)C(F)(F)F)cc1 (some centres unmarked) [Compound 263]	≥ 1 mM
COc1ccccc1-c1ccc(C(CCS(=N)(=O)CC[C@H](N)C(=O)O)C(F)(F)F)cc1 (some centres unmarked) [Compound 264]	< 1 mM
Cc1ccccc1-c1ccc(C(CCS(=N)(=O)CC[C@H](N)C(=O)O)C(F)(F)F)cc1 (some centres unmarked) [Compound 265]	< 1 mM
CC(C)c1ccccc1-c1ccc(C(CCS(=N)(=O)CC[C@H](N)C(=O)O)C(F)(F)F)cc1 (some centres unmarked) [Compound 266]	< 1 mM
N=S(=O)(CCC(c1ccc(-c2ccccc2C(F)(F)F)cc1)C(F)(F)F)CC[C@H](N)C(=O)O (some centres unmarked) [Compound 267]	< 1 mM
COc1ccc(-c2ccc(C(CCS(=N)(=O)CC[C@H](N)C(=O)O)C(F)(F)F)cc2)c(Cl)c1 (some centres unmarked) [Compound 268]	< 1 mM
N=S(=O)(CCC(c1ccc(-c2ccc(Cl)cc2Cl)cc1)C(F)(F)F)CC[C@H](N)C(=O)O (some centres unmarked) [Compound 269]	< 1 mM
N=S(=O)(CCC(c1ccc(-c2ccc(O)cc2Cl)cc1)C(F)(F)F)CC[C@H](N)C(=O)O (some centres unmarked) [Compound 270]	< 1 mM
N=S(=O)(CCC(c1ccc(-c2ccc(F)cc2Cl)cc1)C(F)(F)F)CC[C@H](N)C(=O)O (some centres unmarked) [Compound 271]	< 1 mM
C#Cc1ccc(C(CCS(=N)(=O)CC[C@H](N)C(=O)O)C(F)(F)F)cc1 (some centres unmarked) [Compound 272]	< 1 mM
N=S(=O)(CCC(c1cccc(C#Cc2ccccc2)c1)C(F)(F)F)CC[C@H](N)C(=O)O (some centres unmarked) [Compound 273]	≥ 1 mM
Cc1cc(Cl)ccc1-c1ccc(C(CCS(=N)(=O)CC[C@H](N)C(=O)O)C(F)(F)F)cc1 (some centres unmarked) [Compound 275]	< 1 mM
Cc1ccc(-c2ccc(C(CCS(=N)(=O)CC[C@H](N)C(=O)O)C(F)(F)F)cc2)c(Cl)c1 (some centres unmarked) [Compound 276]	< 1 mM
N=S(=O)(CCC(c1ccc(-c2ccc(Cl)cc2)cc1)C(F)(F)F)CC[C@H](N)C(=O)O (some centres unmarked) [Compound 277]	< 1 mM
Cc1cc(F)ccc1-c1ccc(C(CCS(=N)(=O)CC[C@H](N)C(=O)O)C(F)(F)F)cc1 (some centres unmarked) [Compound 278]	< 1 mM
Cc1ccc(-c2ccc(C(CCS(=N)(=O)CC[C@H](N)C(=O)O)C(F)(F)F)cc2)c(C)c1 (some centres unmarked) [Compound 280]	< 1 mM
N=S(=O)(CCC(c1ccc(-c2ccc(F)cc2O)cc1)C(F)(F)F)CC[C@H](N)C(=O)O (some centres unmarked) [Compound 281]	< 1 mM
N=S(=O)(CCC(c1ccc(-c2ccc(Cl)cc2O)cc1)C(F)(F)F)CC[C@H](N)C(=O)O (some centres unmarked) [Compound 282]	< 1 mM
Cc1cc(Cl)ccc1-c1cccc(C(CCS(=N)(=O)CC[C@H](N)C(=O)O)C(F)(F)F)c1 (some centres unmarked) [Compound 283]	≥ 1 mM
Cc1ccc(-c2cccc(C(CCS(=N)(=O)CC[C@H](N)C(=O)O)C(F)(F)F)c2)c(F)c1 (some centres unmarked) [Compound 284]	≥ 1 mM
